Measurements reported in ChEMBL document CHEMBL4507293 (2021).

Experiments:
[1] = target: Serine/threonine-protein kinase ULK1 (Homo sapiens) (UniProt O75385); conditions: Compound concentration 100.0 nM
[2] = target: Mitogen-activated protein kinase kinase kinase 2 (Homo sapiens) (UniProt Q9Y2U5); conditions: Compound concentration 100.0 nM
[3] = target: Adenosine Transporter (Cavia porcellus) (UniProt H0V4R7+H0UUG1+H0V3Z5); assay: (§1) Inhibition of Transporter, Adenosine at compound concentration of 10.0 uM in the Eurofins-Panlabs radioligand binding assay (Eurofins_assay_202000); assay type: protein assay; design: ligand concentration 0.5 nM, non-specific ligand with concentration 5 uM Nitrobenzylthioinosine, incubation time 30 min, incubation temperature 25 C
Adenosine Transporter = Adenosine Transporter (Cavia porcellus, UniProt H0V4R7+H0UUG1+H0V3Z5); assay: as §1; assay type: protein assay; design: ligand concentration 0.5 nM, non-specific ligand with concentration 5 uM Nitrobenzylthioinosine, incubation time 30 min, incubation temperature 25 C
[4] = target: Glutamate receptor 2 (Homo sapiens) (UniProt P42262); conditions: Rattus norvegicus; Compound concentration 10.0 uM
Chain of Glutamate receptor 2 (Homo sapiens) (P42262 whole entry): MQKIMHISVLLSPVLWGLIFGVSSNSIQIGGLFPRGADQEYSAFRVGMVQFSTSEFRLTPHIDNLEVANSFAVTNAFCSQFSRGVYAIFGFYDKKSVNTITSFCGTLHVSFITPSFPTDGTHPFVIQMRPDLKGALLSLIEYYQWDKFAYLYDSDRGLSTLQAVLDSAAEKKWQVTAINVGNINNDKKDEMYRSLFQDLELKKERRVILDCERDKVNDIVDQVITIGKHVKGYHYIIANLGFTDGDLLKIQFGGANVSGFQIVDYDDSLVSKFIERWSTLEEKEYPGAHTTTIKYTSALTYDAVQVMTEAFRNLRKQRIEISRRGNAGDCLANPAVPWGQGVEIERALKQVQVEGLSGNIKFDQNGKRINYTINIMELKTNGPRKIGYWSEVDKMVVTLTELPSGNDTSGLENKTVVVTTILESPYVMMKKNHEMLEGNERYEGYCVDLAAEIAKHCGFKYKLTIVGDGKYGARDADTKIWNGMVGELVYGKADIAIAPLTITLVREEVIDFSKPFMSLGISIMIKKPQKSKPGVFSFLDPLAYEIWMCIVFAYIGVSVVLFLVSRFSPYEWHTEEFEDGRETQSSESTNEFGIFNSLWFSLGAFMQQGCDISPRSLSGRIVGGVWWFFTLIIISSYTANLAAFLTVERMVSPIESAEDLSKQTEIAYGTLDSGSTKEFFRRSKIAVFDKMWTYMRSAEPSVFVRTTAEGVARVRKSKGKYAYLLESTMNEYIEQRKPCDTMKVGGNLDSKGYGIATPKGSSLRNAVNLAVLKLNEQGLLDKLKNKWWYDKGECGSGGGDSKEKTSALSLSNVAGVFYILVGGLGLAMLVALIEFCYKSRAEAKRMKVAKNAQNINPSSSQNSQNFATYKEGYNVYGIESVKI

[5] = target: Neurotensin receptor type 1 (Homo sapiens) (UniProt P30989); assay: Neurotensin NT1 Eurofins-Panlabs radioligand binding assay; design: ligand concentration 0.02 nM, non-specific ligand with concentration 1 µM Neurotensin, incubation time 45 min, incubation temperature 25 °C; conditions: Compound concentration 10.0 uM
Chain of Neurotensin receptor type 1 (Homo sapiens) (P30989 whole entry): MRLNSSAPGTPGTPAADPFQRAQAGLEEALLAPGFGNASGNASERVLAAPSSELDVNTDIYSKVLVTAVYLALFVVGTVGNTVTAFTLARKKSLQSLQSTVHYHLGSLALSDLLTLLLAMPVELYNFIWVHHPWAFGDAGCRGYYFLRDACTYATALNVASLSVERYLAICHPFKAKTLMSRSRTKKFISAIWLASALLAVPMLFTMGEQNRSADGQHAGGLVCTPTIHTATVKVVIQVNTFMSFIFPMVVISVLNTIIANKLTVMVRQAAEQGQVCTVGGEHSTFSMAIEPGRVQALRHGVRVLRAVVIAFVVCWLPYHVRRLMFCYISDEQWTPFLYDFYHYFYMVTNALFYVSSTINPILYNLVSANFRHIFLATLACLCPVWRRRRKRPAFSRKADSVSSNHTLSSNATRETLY

[6] = target: Mitogen-activated protein kinase 3 (Homo sapiens) (UniProt P27361); assay: Inhibition of Protein Serine/Threonine Kinase, MAPK3 (ERK1) at 10 µM in the Eurofins-Panlabs enzyme assay (Eurofins_assay_171000); conditions: Compound concentration 10.0 uM
Chain of Mitogen-activated protein kinase 3 (Homo sapiens) (P27361 whole entry): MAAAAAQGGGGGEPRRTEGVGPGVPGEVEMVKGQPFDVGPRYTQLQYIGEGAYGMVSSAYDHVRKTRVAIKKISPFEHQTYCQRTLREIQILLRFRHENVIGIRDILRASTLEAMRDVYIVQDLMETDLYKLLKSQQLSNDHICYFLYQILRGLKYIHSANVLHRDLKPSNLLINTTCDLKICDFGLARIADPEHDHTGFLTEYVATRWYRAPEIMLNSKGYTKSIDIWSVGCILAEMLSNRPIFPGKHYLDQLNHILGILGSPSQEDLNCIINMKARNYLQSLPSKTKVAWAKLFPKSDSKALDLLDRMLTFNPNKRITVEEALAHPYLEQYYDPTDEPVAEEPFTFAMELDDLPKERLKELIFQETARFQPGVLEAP

[7] = target: T1, Muscarinic acetylcholine receptor M5 (Homo sapiens) (UniProt P08912); assay: Inhibition of Muscarinic M5 at 10 µM in the Eurofins-Panlabs radioligand binding assay (Eurofins_assay_253010); design: ligand concentration 0.8 nM; conditions: Compound concentration 10.0 uM
T1 sequence (whole entry): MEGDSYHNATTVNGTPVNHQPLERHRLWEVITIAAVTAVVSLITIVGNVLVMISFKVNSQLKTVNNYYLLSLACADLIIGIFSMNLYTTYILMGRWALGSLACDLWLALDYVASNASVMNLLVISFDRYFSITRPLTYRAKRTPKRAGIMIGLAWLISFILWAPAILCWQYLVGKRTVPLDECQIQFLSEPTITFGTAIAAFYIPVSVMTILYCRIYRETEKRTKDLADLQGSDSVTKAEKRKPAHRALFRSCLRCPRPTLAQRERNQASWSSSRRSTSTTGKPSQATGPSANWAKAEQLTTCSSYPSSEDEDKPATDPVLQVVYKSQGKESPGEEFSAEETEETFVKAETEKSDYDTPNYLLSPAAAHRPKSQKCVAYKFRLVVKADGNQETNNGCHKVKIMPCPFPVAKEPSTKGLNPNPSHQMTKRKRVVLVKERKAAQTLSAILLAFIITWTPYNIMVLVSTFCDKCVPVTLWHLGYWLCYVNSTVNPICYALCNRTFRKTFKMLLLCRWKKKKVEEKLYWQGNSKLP

[8] = target: Glutamate NMDA receptor; GRIN1/GRIN2A (Homo sapiens) (UniProt Q05586+Q12879); assay: NMDA-NR1a/NR2a Eurofins-Panlabs radioligand binding assay; assay type: protein-complex assay; conditions: Compound concentration 10.0 uM
[9] = target: Alpha-1D adrenergic receptor (Homo sapiens) (UniProt P25100); conditions: Compound concentration 10.0 uM
[10] = target: Endothelin-1 receptor (Homo sapiens) (UniProt P25101); conditions: Compound concentration 10.0 uM
Chain of Endothelin-1 receptor (Homo sapiens) (P25101 whole entry): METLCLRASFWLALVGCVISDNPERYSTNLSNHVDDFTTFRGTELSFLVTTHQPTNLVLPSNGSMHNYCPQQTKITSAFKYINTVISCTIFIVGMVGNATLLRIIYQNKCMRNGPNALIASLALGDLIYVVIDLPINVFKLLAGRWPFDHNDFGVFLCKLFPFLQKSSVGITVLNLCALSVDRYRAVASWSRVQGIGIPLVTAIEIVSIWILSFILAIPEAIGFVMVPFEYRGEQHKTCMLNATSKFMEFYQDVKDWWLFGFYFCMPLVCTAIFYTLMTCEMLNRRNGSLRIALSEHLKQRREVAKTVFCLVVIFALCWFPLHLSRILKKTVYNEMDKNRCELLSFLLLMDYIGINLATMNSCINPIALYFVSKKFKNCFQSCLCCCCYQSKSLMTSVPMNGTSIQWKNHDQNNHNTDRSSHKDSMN

[11] = target: T2, Muscarinic acetylcholine receptor M4 (Homo sapiens) (UniProt P08173); conditions: Compound concentration 10.0 uM
T2 sequence (whole entry): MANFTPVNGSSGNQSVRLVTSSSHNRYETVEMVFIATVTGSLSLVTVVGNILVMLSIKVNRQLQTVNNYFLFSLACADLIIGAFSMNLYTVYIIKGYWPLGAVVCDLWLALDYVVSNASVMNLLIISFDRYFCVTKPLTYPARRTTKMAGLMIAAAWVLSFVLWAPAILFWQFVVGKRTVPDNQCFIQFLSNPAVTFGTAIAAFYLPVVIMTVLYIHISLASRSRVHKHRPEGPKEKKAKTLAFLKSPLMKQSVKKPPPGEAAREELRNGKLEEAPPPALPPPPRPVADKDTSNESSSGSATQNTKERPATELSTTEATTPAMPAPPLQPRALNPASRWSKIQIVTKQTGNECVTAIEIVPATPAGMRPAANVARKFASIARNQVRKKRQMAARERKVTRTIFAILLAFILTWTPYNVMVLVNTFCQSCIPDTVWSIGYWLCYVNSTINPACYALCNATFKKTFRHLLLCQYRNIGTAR

Rattus norvegicus [12] = species on record: Rattus norvegicus; conditions: Compound concentration 10.0 uM
Bos taurus = species on record: Bos taurus; assay: Protein Serine/Threonine Kinase, PKA, Non-Selective Eurofins-Panlabs enzyme assay; assay type: protein-complex assay; design: substrate with concentration 370 µg/mL Histone Type III-S, incubation time 15 min, incubation temperature 25 °C; conditions: Compound concentration 10.0 uM
[13] = target: Type-1 angiotensin II receptor (Homo sapiens) (UniProt P30556); assay: Angiotensin AT1 Eurofins-Panlabs radioligand binding assay; conditions: Compound concentration 10.0 uM
Chain of Type-1 angiotensin II receptor (Homo sapiens) (P30556 whole entry): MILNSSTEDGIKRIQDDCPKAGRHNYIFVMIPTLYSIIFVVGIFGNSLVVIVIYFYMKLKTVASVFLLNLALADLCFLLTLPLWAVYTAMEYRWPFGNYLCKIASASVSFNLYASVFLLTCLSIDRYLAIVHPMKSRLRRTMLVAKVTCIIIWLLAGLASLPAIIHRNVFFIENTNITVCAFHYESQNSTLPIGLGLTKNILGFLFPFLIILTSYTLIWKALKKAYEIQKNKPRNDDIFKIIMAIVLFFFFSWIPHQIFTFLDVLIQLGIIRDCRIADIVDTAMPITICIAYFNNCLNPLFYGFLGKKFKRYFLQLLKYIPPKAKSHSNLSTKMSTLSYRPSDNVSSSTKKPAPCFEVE

[14] = target: T3, Muscarinic acetylcholine receptor M1 (Homo sapiens) (UniProt P11229); conditions: Compound concentration 10.0 uM
T3 sequence (whole entry): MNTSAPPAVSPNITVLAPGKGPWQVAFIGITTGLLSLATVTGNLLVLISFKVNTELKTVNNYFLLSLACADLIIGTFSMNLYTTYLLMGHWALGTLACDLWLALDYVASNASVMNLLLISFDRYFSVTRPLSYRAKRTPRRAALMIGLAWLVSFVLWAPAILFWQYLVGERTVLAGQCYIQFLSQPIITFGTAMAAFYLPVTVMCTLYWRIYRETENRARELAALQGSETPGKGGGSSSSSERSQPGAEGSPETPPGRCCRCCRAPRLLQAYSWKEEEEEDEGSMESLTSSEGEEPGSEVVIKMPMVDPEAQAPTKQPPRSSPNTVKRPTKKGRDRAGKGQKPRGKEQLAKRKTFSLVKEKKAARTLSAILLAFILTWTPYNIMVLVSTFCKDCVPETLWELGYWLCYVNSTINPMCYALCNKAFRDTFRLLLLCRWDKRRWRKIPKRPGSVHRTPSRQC

Rattus norvegicus [15] = species on record: Rattus norvegicus; assay: Inhibition of Glycine, Strychnine-Sensitive at 10 µM in the Eurofins-Panlabs radioligand binding assay (Eurofins_assay_239000); conditions: Compound concentration 10.0 uM
[16] = target: Glucocorticoid receptor (Homo sapiens) (UniProt P04150); assay: Glucocorticoid Eurofins-Panlabs radioligand binding assay; conditions: Compound concentration 10.0 uM
Chain of Glucocorticoid receptor (Homo sapiens) (P04150 whole entry): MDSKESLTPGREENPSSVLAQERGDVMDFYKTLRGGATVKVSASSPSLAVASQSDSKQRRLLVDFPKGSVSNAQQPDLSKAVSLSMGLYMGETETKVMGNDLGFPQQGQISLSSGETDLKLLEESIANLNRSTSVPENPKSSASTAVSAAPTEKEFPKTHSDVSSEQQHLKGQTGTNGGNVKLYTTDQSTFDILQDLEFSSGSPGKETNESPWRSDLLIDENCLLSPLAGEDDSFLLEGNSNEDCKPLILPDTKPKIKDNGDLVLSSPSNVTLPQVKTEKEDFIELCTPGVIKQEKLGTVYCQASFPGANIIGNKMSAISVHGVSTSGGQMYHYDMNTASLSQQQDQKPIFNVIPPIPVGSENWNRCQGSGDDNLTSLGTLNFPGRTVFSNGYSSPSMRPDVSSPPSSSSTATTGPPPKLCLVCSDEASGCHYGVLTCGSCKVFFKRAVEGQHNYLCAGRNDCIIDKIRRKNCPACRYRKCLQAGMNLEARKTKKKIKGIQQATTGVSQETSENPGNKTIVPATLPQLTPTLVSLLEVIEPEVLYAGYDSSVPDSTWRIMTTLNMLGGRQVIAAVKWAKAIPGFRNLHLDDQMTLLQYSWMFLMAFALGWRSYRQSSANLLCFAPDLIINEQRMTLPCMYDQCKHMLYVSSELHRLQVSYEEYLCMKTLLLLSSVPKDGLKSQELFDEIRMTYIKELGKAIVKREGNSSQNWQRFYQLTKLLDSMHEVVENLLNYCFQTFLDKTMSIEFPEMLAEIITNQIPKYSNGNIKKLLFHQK

Caspase-8 (Homo sapiens) = Caspase-8 (Homo sapiens) (UniProt Q14790); assay: Peptidase, CASP8 (Caspase 8) Eurofins-Panlabs enzyme assay; conditions: Compound concentration 10.0 uM

Chain of Mitogen-activated protein kinase kinase kinase 2 (Homo sapiens) (Q9Y2U5 whole entry): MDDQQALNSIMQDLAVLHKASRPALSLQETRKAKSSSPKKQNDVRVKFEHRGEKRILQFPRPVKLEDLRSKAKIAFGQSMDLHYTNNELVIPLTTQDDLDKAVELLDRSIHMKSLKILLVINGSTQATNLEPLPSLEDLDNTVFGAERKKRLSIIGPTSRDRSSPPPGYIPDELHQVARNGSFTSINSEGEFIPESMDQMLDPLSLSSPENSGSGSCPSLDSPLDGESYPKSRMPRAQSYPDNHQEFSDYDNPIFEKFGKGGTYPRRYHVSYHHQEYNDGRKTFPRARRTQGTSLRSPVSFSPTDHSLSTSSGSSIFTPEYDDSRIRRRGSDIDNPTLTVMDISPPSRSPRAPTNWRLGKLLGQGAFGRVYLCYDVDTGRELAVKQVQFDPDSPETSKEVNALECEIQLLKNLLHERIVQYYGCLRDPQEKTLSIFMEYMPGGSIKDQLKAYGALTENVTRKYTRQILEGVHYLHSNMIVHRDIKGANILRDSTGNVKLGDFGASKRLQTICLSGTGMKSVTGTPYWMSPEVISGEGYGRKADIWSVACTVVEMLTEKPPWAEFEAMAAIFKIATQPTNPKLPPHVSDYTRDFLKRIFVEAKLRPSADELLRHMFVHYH
Chain of Serine/threonine-protein kinase ULK1 (Homo sapiens) (O75385 whole entry): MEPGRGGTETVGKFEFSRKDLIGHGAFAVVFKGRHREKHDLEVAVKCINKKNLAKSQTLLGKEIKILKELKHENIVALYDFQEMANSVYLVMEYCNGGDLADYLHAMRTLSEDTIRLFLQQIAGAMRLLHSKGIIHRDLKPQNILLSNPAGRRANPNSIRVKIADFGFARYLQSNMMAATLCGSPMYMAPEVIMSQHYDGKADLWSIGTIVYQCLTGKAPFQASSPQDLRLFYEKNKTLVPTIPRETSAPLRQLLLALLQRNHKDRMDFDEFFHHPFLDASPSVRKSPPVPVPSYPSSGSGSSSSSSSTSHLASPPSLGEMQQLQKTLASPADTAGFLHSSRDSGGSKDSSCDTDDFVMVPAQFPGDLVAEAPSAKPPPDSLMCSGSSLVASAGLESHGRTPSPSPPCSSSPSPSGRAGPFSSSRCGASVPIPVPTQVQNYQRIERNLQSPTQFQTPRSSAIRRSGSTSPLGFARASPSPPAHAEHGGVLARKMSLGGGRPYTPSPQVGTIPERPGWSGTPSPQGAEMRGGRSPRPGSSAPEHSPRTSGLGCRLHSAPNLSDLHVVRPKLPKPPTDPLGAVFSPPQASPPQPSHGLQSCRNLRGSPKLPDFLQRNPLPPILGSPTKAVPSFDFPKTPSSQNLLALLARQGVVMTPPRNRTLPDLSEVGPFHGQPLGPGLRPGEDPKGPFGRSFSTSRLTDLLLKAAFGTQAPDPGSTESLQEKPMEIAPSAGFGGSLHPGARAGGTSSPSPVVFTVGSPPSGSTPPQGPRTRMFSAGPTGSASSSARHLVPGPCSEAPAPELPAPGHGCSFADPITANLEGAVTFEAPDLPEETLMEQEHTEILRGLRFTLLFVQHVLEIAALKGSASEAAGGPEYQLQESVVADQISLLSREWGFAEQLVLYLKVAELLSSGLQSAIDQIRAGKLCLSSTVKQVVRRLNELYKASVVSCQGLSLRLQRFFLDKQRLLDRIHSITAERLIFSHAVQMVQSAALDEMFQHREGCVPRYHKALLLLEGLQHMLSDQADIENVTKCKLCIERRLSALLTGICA

## CC(C)CC(=O)N1CCc2nc(-c3ccc(Br)cc3)nc(N(C)Cc3ccccc3)c2C1 [THPP-1-NC]
[1]
  residual activity: 90%
[2]
  residual activity: 100%

## COCCOc1nc(-c2ccc(Cl)nc2)nc2c1CN(C(=O)c1ncn3ccccc13)CC2 [THPP-1]
[3]; Compound concentration 0.01 uM
  inhibition: -6%
[3]; Compound concentration 0.1 uM
  inhibition: 21%
[3]; Compound concentration 1.0 uM
  inhibition: 40%
[3]; Compound concentration 10.0 uM
  inhibition: 75%
Adenosine Transporter
  IC50: 1610 nM
  Ki: 550 nM
[4]
  inhibition: -10%
[5]
  inhibition: 10%
[6]
  inhibition: 6%
[7]
  inhibition: 1%
[8]
  inhibition: -7%
[9]
  inhibition: -4.48%
[10]
  inhibition: 1%
[11]
  inhibition: 5%
Rattus norvegicus [12]
  inhibition: -9%
Bos taurus
  inhibition: -7%
[13]
  inhibition: 3%
[14]
  inhibition: 6%
Rattus norvegicus [15]
  inhibition: 15%
[16]
  inhibition: -6%
Caspase-8 (Homo sapiens)
  inhibition: -3%
